Where two headings read alike, the source gives them in different places.
System: HCT116 MTAP-deleted cell lines
Assay: Cell viability assay (CellTiter-Glo, 7 days), HCT116 MTAP-deleted
Assay type: cell-based
Settings: Homo sapiens, HCT-116, HCT116 MTAP-deleted, class symbols, read-out: CC50
Summary of the method: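 PRMT5 inhibitors were serially diluted in DMSO and acoustically spotted as dose-response series into plates before cell seeding. Cells were grown with compound for 7 days at 37 °C, 5% CO2, 90% humidity, then viability was read by CellTiter-Glo luminescence and reported as CC50.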

SMILES: CN(C(=O)c1cc2c(cc1F)nc(N)c1cncn12)C1CCOc2cc(C(F)(F)F)ccc21 (stereo not shown) [Ff-40, 4-amino-7-fluoro-N-methyl-N-(7-(trifluoromethyl)chroman-4-yl)imidazo[1,5-a]quinoxaline-8-carboxamide]
- CC50 (cell viability): 100 to 1000 nM

SMILES: CN(C(=O)c1cc2c(cc1F)nc(N)c1cncn12)[C@@H]1COc2cc(C#CC3(F)CCOC3)ccc21 (stereo partly drawn) [Ff-446, 4-amino-7-fluoro-N-[(3S)-6-[2-(3-fluorotetrahydrofuran-3-yl)ethynyl]-2,3-dihydrobenzofuran-3-yl]-N-methyl-imidazo[1,5-a]quinoxaline-8-carboxamide]
- CC50 (cell viability assay): < 100 nM

SMILES: Nc1nc2cc(F)c(C(=O)N3C[C@H](F)CC4Oc5cc(C(F)(F)F)ccc5[C@@H]43)cc2n2cncc12 (mixture of isomers) [Ff-112, Rac-(4-amino-7-fluoroimidazo[1,5-a]quinoxalin-8-yl)((3R,4aS,9bS)-3-fluoro-7-(trifluoromethyl)-3,4,4a,9b-tetrahydrobenzofuro[3,2-b]pyridin-1(2H)-yl)methanone]
- CC50 (cell viability): < 100 nM

SMILES: Cc1ncn2c1c(N)nc1cc(F)c(C(=O)N3C[C@@H](F)C[C@@H]4Oc5cc(C(F)(F)F)ccc5[C@@H]43)cc12 [Ff-659, (4-amino-7-fluoro-3-methylimidazo[1,5-a]quinoxalin-8-yl)((3S,4aS,9bS)-3-fluoro-7-(trifluoromethyl)-3,4,4a,9b-tetrahydrobenzofuro[3,2-b]pyridin-1(2H)-yl)methanone]
- CC50 (cell viability assay): < 100 nM

SMILES: CC1(C)CN(C(=O)c2cc3c(cc2F)nc(N)c2cncn23)CC1c1ccccc1 (stereo not shown) [Ff-2, (4-amino-7-fluoroimidazo[1,5-a]quinoxalin-8-yl)(3,3-dimethyl-4-phenylpyrrolidin-1-yl)methanone]
- CC50 (cell viability): 100 to 1000 nM

SMILES: CN(C(=O)c1cc2c(cc1F)nc(N)c1cncn12)[C@@H]1COc2cc(-c3cnn(-c4ccccc4)c3)ccc21 [Ff-472, (S)-4-amino-7-fluoro-N-methyl-N-(6-(1-phenyl-1H-pyrazol-4-yl)-2,3-dihydrobenzofuran-3-yl)imidazo[1,5-a]quinoxaline-8-carboxamide]
- CC50 (cell viability assay): < 100 nM

SMILES: Nc1nc2cc(F)c(C(=O)N3CCC[C@@H]4OCc5cc(-c6cnn(C(F)(F)F)c6)ccc5[C@@H]43)cc2n2cncc12 (racemic) [Ff-295, Rac-(4-amino-7-fluoroimidazo[1,5-a]quinoxalin-8-yl)((4aS,10bS)-8-(1-(trifluoromethyl)-1H-pyrazol-4-yl)-2,3,4,4a,6,10b-hexahydro-1H-isochromeno[4,3-b]pyridin-1-yl)methanone]
- CC50 (cell viability): < 100 nM

SMILES: Nc1nc2cc(F)c(C(=O)N3CCC[C@@H]4Oc5cc(OC(F)(F)F)ccc5[C@@H]43)cc2n2cncc12 (single isomer, unassigned) [Ff-395]
- CC50 (cell viability assay): < 100 nM

SMILES: CN(C(=O)c1cc2c(cc1F)nc(N)c1cncn12)C1COc2c1ccc1c2OC(F)(F)O1 (stereo not shown) [Ff-156, 4-amino-N-(2,2-difluoro-6,7-dihydro-[1,3]dioxolo[4,5-g]benzofuran-6-yl)-7-fluoro-N-methylimidazo[1,5-a]quinoxaline-8-carboxamide]
- CC50 (cell viability): 100 to 1000 nM

SMILES: COc1cc(C(F)(F)F)ccc1[C@@H](C)N(C)C(=O)c1cc2c(cc1F)nc(N)c1cncn12 [Ff-535, (R)-4-amino-7-fluoro-N-(1-(2-methoxy-4-(trifluoromethyl)phenyl)ethyl)-N-methylimidazo[1,5-a]quinoxaline-8-carboxamide]
- CC50 (cell viability assay): 100 to 1000 nM

SMILES: CC(=O)N(C)N(Cc1ccc(C(F)(F)F)cc1Cl)C(=O)c1cc2c(cc1F)nc(N)c1cncn12 [Fb-1, N′-acetyl-4-amino-N-(2-chloro-4-(trifluoromethyl)benzyl)-7-fluoro-N′-methylimidazo[1,5-a]quinoxaline-8-carbohydrazide]
- CC50 (cell viability): < 100 nM

SMILES: CN(C(=O)c1cc2c(cc1F)nc(N)c1c(Br)ncn12)[C@@H]1COc2cc(C(F)(F)F)ccc21 (single isomer, unassigned) [Ff-494]
- CC50 (cell viability assay): 100 to 1000 nM

SMILES: Nc1nc2cc(F)c(C(=O)N3CCO[C@@H]4Cc5cc(Br)c(F)cc5[C@@H]43)cc2n2cncc12 [Ff-160, (4-amino-7-fluoroimidazo[1,5-a]quinoxalin-8-yl)((4aS,9aR)-7-bromo-6-fluoro-2,3,9,9a-tetrahydroindeno[2,1-b][1,4]oxazin-4(4aH)-yl)methanone]
- CC50 (cell viability): < 100 nM

SMILES: Cc1ncc2c(N)nc3cnc(C(=O)N4CC[C@H]5C[C@@H]4c4ccc(C(F)(F)F)cc4O5)cc3n12 [Ff-369, (4-amino-1-methylimidazo[1,5-a]pyrido[3,4-e]pyrazin-8-yl)((2S,6R)-9-(trifluoromethyl)-3,4-dihydro-2H-2,6-methanobenzo[b][1,5]oxazocin-5(6H)-yl)methanone]
- CC50 (cell viability assay): < 100 nM

SMILES: Cc1ncn2c1c(N)nc1cc(F)c(C(=O)N3C[C@H](C)C[C@@H]4Oc5cc(C(F)(F)F)ncc5[C@@H]43)cc12 [Fg-21, (4-amino-7-fluoro-3-methylimidazo[1,5-a]quinoxalin-8-yl)((3R,4aS,9bS)-3-methyl-7-(trifluoromethyl)-3,4,4a,9b-tetrahydrofuro[3,2-b:4,5-c′]dipyridin-1(2H)-yl)methanone]
- CC50 (cell viability assay): < 100 nM

SMILES: CC(=O)N1CCN(C(=O)c2cc3c(cc2F)nc(N)c2cncn23)C(c2ccc(C(F)(F)F)cn2)C1 (stereo not shown) [Ff-134, 1-(4-(4-amino-7-fluoroimidazo[1,5-a]quinoxaline-8-carbonyl)-3-(5-(trifluoromethyl)pyridin-2-yl)piperazin-1-yl)ethan-1-one]
- CC50 (cell viability): 100 to 1000 nM

SMILES: N#C[C@@H]1C[C@H]1c1ccc2c(c1)C[C@H]1OCCN(C(=O)c3cc4c(cc3F)nc(N)c3cncn34)[C@@H]21 [Ff-448, Trans-2-[(4aS,9aR)-4-(4-amino-7-fluoro-imidazo[1,5-a]quinoxaline-8-carbonyl)-3,4a,9,9a-tetrahydro-2H-indeno[2,1-b][1,4]oxazin-7-yl]cyclopropanecarbonitrile]
- CC50 (cell viability assay): < 100 nM

SMILES: Nc1nc2cc(F)c(C(=O)N3CCO[C@@H]4Cc5cc(Cl)ccc5[C@@H]43)cc2n2cncc12 [Ff-461, (4-amino-7-fluoroimidazo[1,5-a]quinoxalin-8-yl)((4aS,9aR)-7-chloro-2,3,9,9a-tetrahydroindeno[2,1-b][1,4]oxazin-4(4aH)-yl)methanone]
- CC50 (cell viability assay): < 100 nM

SMILES: Cc1ncn2c1c(N)nc1cc(F)c(C(=O)N3CC[C@H]4C[C@@H]3c3ccc(C(F)(F)F)nc3O4)cc12 [Fg-33, (4-amino-7-fluoro-3-methylimidazo[1,5-a]quinoxalin-8-yl)((2S,6R)-9-(trifluoromethyl)-3,4-dihydro-2H-2,6-methanopyrido[2,3-b][1,5]oxazocin-5(6H)-yl)methanone]
- CC50 (cell viability assay): < 100 nM

SMILES: Cc1ncn2c1c(N)nc1cnc(C(=O)N3C[C@H](C)C[C@@H]4CCc5cc(C(F)(F)F)ccc5[C@@H]43)cc12 (racemic) [Ff-462, Rac-(4-amino-3-methylimidazo[1,5-a]pyrido[3,4-e]pyrazin-8-yl)((3R,4aS,10bR)-3-methyl-8-(trifluoromethyl)-3,4,4a,5,6,10b-hexahydrobenzo[h]quinolin-1(2H)-yl)methanone]
- CC50 (cell viability assay): 100 to 1000 nM

SMILES: CN(C(=O)c1cc2c(cc1F)nc(N)c1cncn12)[C@@H]1COc2cc([C@@H]3C[C@H]3C(F)F)ccc21 (single isomer, unassigned) [Ff-504]
- CC50 (cell viability assay): < 100 nM

SMILES: Nc1nc2cc(C3CC3)c(C(=O)N3CCC[C@@H]4Oc5cc(C(F)(F)F)ccc5[C@@H]43)cc2n2cncc12 [Fg-56, (4-amino-7-cyclopropylimidazo[1,5-a]quinoxalin-8-yl)((4aS,9bS)-7-(trifluoromethyl)-3,4,4a,9b-tetrahydrobenzofuro[3,2-b]pyridin-1(2H)-yl)methanone]
- CC50 (cell viability assay): 100 to 1000 nM

Reference: patent publication US12448388B2, “PRMT5 inhibitors and uses thereof” (Gilead Sciences, Inc., priority 2023, dated 2025)
